Test results as given in article PMC12631912, “A Multifunctional Molecular Probe for Multimodal Imaging‐Guided Potent Photothermal/Photodynamic Therapy of Endometriosis” (Advanced Science, 2025).

Experiments:
[1] = free ICG; cited from earlier work
[2] = UV absorption and fluorescence emission spectra; type: physicochemical; conditions: in PBS, cRGD-ILD C ICG = 10 µg mL^−1, ICG 5 µg/mL
Description: The ^1H NMR spectra were conducted utilizing a Varian Unity 400 MHz Spectrometer ([…]) in a variety of deuterated solvents. ESI‐MS were obtained with a Thermo Scientific LTQ XL mass spectrometer (Thermo, USA). UV absorption spectra were measured by a Unico UV‐2000 UV–vis Spectrophotometer (Shanghai, China). Photoluminescence excitation and emission spectra were recorded using an FSP920‐combined Time Resolved and Steady State Fluorescence Spectrometer (Edinburgh, UK), equipped with a 450‐W xenon lamp. Both the UV and fluorescence spectrophotometers were scanned within the wavelength range of 650–850 nm.

[3] = set-up: method as in earlier work; conditions: clinically approved contrast agent; cited from earlier work

In the case of `CC1(C)C(/C=C/C=C/C=C/C=C2\N(CCCCS(=O)(=O)O)c3ccc4ccccc4c3C2(C)C)=[N+](CCCCS(=O)(=O)[O-])c2ccc3ccccc3c21` [ICG, indocyanine green, reference compound], the “Photothermal conversion efficiency (PCE)” value [1] is listed as 15.8%, the fluorescence emission peak ([2]; λex = 755 nm) is listed as 764 nm and the absorption peak [2] is listed as 755 nm.

For `CNC[C@H](O)[C@@H](O)[C@H](O)[C@H](O)CO.CNC[C@H](O)[C@@H](O)[C@H](O)[C@H](O)CO.O=C([O-])CN(CCN(CC(=O)[O-])CC(=O)O)CCN(CC(=O)[O-])CC(=O)O.[Gd+3]` [Magnevist], the “T 1 relaxivities (r 1)” value [3] is given as 5.35 mM⁻¹ s⁻¹.
